Earlier results in publication PMC4617652 (Journal of the American Chemical Society, 2015).
Read-outs that look alike come from different tables or passages of the source. Values belong to the molecule of their own block, whether it stands above or below them.

pKBH+ of reference base (MeCN ref 19): 28.35
Compound: CC(C)(C)N=P(N1CCCC1)(N1CCCC1)N1CCCC1 [P1-tBu(pyrr)3]

Compound: CCN=P(N=P(N(C)C)(N(C)C)N(C)C)(N(C)C)N(C)C [P2-Et]
pKBH+ of reference base (MeCN ref 6c): 32.94

pKBH+ of reference base (MeCN ref 24): 24.34
Compound: C1CCC2=NCCCN2CC1 [DBU]
